Experimental data taken from patent US12064420B2, “Tie-2 activators targeting the Schlemm's canal” (EyePoint Pharmaceuticals, Inc., priority 2019, dated 2024).

Legend:
[1] = tested on: patients with moderate to severe non-proliferative diabetic retinopathy; assay: Phase 2 48-week trial: IOP after subcutaneous Compound 1 QD or BID, non-proliferative diabetic retinopathy; assay type: in vivo, human; conditions: for mean reduction in IOP compared to placebo: MMRM ANCOVA; for Week 12 IOP change from BL, mean (SD) / Week 12 IOP, mean (SD) / Week 36 IOP change from BL, mean (SD) / Week 36 IOP, mean (SD) / Week 48 IOP change from BL, mean (SD) / Week 48 IOP, mean (SD) / Week 24 IOP change from BL, mean (SD) / Week 24 IOP, mean (SD): averaged over both eyes; for Week 24 IOP change from BL, mean (SD) / Week 24 IOP, mean (SD): measured predose
Excerpt: Eligible subjects were aged 18 to 80 years with moderate to severe NPDR. The major inclusion criteria for the qualified eyes included Early Treatment Diabetic Retinopathy Study (ETDRS) Severity Score≥43 and ≤53, no evidence of central involved diabetic macular edema (DME) and ETDRS≥70 letters using the ETDRS visual acuity charts. Study eye ocular exclusion criteria included uncontrolled glaucoma defined as IOP≥30 mm Hg on maximum IOP reduction therapy. Subjects were randomized 1:1:1 to either Compound 1, 15 mg once daily (QD), Compound 1, 15 mg twice daily (BID), or placebo BID treatment groups. Subjects self-administered the masked study medication (Compound 1 or placebo) supplied as sterile pre-filled single-use syringes. Subjects visited the clinical site monthly during the 48-week treatment period. A battery of comprehensive ophthalmic evaluations including IOP assessments were conducted every 12-weeks with either applanation tonometry or Tono-Pen® and the methodology was consistent throughout the study. On Day 1 and Week 24, IOP was measured prior to dosing. IOP data were analyzed using a mixed-model repeated measures ANCOVA, with visit as the repeated measure within subject. The model included change from baseline as the dependent variable. The p-value from the model was adjusted by baseline IOP. 167 patients with moderate to severe non-proliferative diabetic retinopathy (NPDR) without diabetic macular edema (DME) and a visual acuity of 20/40 or better were enrolled in a 48-week study of the effect of Compound 1 (sodium salt) in the treatment of NPDR. The IOP was measured at baseline, and at weeks 12, 24, 36, and 48. The trial consisted of three study arms: 1) patients receiving 15 mg of Compound 1 subcutaneously BID; 2) patients receiving placebo subcutaneously QD, and 15 mg of Compound 1 subcutaneously QD; and 3) patients receiving a placebo subcutaneously BID.

[2] = tested on: mouse eyes; assay: Outflow facility in enucleated mouse eyes (iPerfusion); assay type: in vivo
Description: An iPerfusion system was used to measure outflow facility in mice. The system is designed to measure outflow facility in paired mouse eyes having low flow rates (nL/min). Outflow facility is a measure of the ability of aqueous humor to flow from the trabecular meshwork to maintain a steady state TOP.
After three days of treatment with either Compound 1 or placebo, eyes were enucleated, and outflow facility was measured in a masked fashion. Briefly, mice were euthanized using isoflurane and freshly enucleated, paired mouse eyes were mounted on two stabilization platforms in temperature-controlled perfusion chambers by using a small amount of cyanoacrylate glue. […]
Both eyes of the mice were perfused at 9 mmHg for 45-60 min to allow acclimatization and to deliver the drug or vehicle to the outflow pathway, followed by 9 sequential pressure steps of 4.5, 6, 7.5, 9, 10.5, 12, 15, 18, and 21 mmHg. The outflow from the eye was measured at multiple pressures to calculate the outflow facility.
A non-linear flow-pressure model was used to account for the pressure dependence of outflow facility in mice. The reference facility was analyzed at a reference pressure of 8 mmHg, which approximates the physiological pressure drop across the conventional outflow pathway in living mice. […]

SMILES: COC(=O)N[C@@H](Cc1ccccc1)C(=O)N[C@@H](Cc1ccc(NS(=O)(=O)O)cc1)c1csc(-c2cccs2)n1 [Compound 1, 4-{(S)-2-[(S)-2-(Methoxycarbonylamino)-3-phenylpropanamido]-2-[2-(thiophen-2-yl)thiazol-4-yl]ethyl}phenylsulfamic acid]
- mean reduction in IOP compared to placebo ([1]; 15 mg SC BID): 1.15 mmHg
- Week 12 IOP change from BL, mean (SD) ([1]; 15 mg SC BID): −0.91 (3.20) mmHg
- Week 12 IOP, mean (SD) ([1]; 15 mg SC BID): 14.6 (2.93) mmHg
- Week 36 IOP change from BL, mean (SD) ([1]; 15 mg SC BID): −1.48 (3.48) mmHg
- Week 36 IOP, mean (SD) ([1]; 15 mg SC BID): 14.0 (2.74) mmHg
- Week 48 IOP change from BL, mean (SD) ([1]; 15 mg SC BID): −0.94 (3.00) mmHg
- Week 48 IOP, mean (SD) ([1]; 15 mg SC BID): 14.6 (2.73) mmHg
- Week 24 IOP change from BL, mean (SD) ([1]; 15 mg SC BID): −1.27 (3.31) mmHg
- Week 24 IOP, mean (SD) ([1]; 15 mg SC BID): 14.2 (2.60) mmHg
- mean reduction in IOP compared to placebo ([1]; 15 mg SC QD): 0.70 mmHg
- Week 12 IOP change from BL, mean (SD) ([1]; 15 mg SC QD): −0.56 (2.83) mmHg
- Week 12 IOP, mean (SD) ([1]; 15 mg SC QD): 15.3 (2.75) mmHg
- Week 36 IOP change from BL, mean (SD) ([1]; 15 mg SC QD): −0.94 (3.39) mmHg
- Week 36 IOP, mean (SD) ([1]; 15 mg SC QD): 14.9 (3.58) mmHg
- Week 48 IOP change from BL, mean (SD) ([1]; 15 mg SC QD): −0.72 (2.80) mmHg
- Week 48 IOP, mean (SD) ([1]; 15 mg SC QD): 15.2 (2.84) mmHg
- Week 24 IOP change from BL, mean (SD) ([1]; 15 mg SC QD): −0.56 (2.99) mmHg
- Week 24 IOP, mean (SD) ([1]; 15 mg SC QD): 15.3 (2.90) mmHg
- outflow facility ([2]; eyes dosed three days QD with 4% Compound 1, perfused with 10 μM, reference pressure 8 mmHg): 3.4±0.4 nL/min/mmHg
- increase of outflow facility compared to control ([2]; versus placebo-treated contralateral eyes): 33%
